Measurements from publication PMC11677752 (Pharmaceutics, 2024).

Columns and labels:
MRP2 = conditions: cited from earlier work
NAT = conditions: cited from earlier work; for Inhibition of 5-ASA Ac-CoA-dependent metabolism: alternative NAT substrates
[1] = Regional luminal fluid pH in rats; type: in vivo; conditions: lansoprazole 5 mg/mL/kg i.p. 1 h before oral 5-ASA solution in 5% NaHCO3; 3 h after 5-ASA; untreated control rats […] ± 0.60, p = 0.07
[2] = test system: peptide transporter 1 (PEPT1); parameters: method as in PMID 28867741; conditions: cited from earlier work
[3] = 5-ASA membrane distribution study in rats (GI membrane concentrations); conditions: fed rats, oral 30 mg/2.2 mL/kg
Method: The animal study was performed according to the Care and Use of Laboratory Animals of the Committee for Animal Experiments of Fukuyama University (2023-A-10). Male Sprague Dawley rats were purchased from Japan SLC, Inc. (Hamamatsu, Japan). After feeding for several days, the rats that weighed 200 to 300 g were used for the membrane distribution studies. […] Separately, the fed rats were treated with lansoprazole, which was dissolved with a small amount of dimethyl sulfoxide (DMSO) and then diluted with physiological saline to make a lansoprazole solution (5 mg/mL); this solution was injected intraperitoneally at a 5 mg/mL/kg dose. […] One milliliter of water was poured into each isolated segment’s lumen and the luminal fluid pH was measured using a compact pH meter (HORIBA, LAQUA twin®, Kyoto, Japan). The intestinal tract was opened and cleaned with ice-cold 0.9% NaCl solution, frozen in liquid nitrogen, and stored at −80 °C until analysis.
An L-column 2 ODS (150 mm × 4.6 mm, particle size 5 µm, CERI Co., Ltd., Saitama, Japan) was used, and the mobile phase was a mixture of 0.1 M acetic acid, acetonitrile, and triethylamine (920:100:2, v/v/v). The mobile phase flow rate was 1 mL/min. […] The HPLC system (Shimadzu, Kyoto, Japan) comprised a model LC20AD pump, a 20 µL fixed injection loop, and a fluorescence spectrophotometer (Shimadzu, RF10AXL). […]

[4] = parameters: method as in PMID 3557190; conditions: healthy volunteers, intravenous dose 0.50 g, oral dose 2.42 g; cited from earlier work
[5] = three animal species (rats, rabbits, and pigs); cited from earlier work

CC(=O)Nc1ccc(O)c(C(=O)O)c1 [AC-5-ASA, N-acetyl-5-ASA]
PappBA/PappAB ratio (MRP2; Caco-2 cells): 4.89 | Substrate for MRP2 (MRP2): is a substrate

NNC(=O)c1ccncc1 [isoniazid]
Inhibition of 5-ASA Ac-CoA-dependent metabolism (NAT): inhibited

O=c1c(O)c(-c2ccc(O)c(O)c2)oc2cc(O)cc(O)c12 [quercetin]
PappBA/PappAB permeability ratio of AC-5-ASA in presence of the MRP inhibitor (MRP2; Caco-2 cells): ~1

Cc1c(OCC(F)(F)F)ccnc1C[S+]([O-])c1nc2ccccc2[nH]1 (centres unmarked) [lansoprazole]
Gastric pH [1]: 4.77 ± 0.12

CN(C)C(=O)CCSC(SCCC(=O)O)c1cccc(/C=C/c2ccc3ccc(Cl)cc3n2)c1 (centres unmarked) [MK571]
PappBA/PappAB permeability ratio of AC-5-ASA in presence of the MRP inhibitor (MRP2; Caco-2 cells): ~1

Nc1ccc(C(=O)N[C@@H](CCC(=O)O)C(=O)O)cc1 [p-aminobenzoylglutamate]
Inhibition of 5-ASA Ac-CoA-dependent metabolism (NAT): inhibited

Nc1ccc(O)c(C(=O)O)c1 [5-ASA, 5-Aminosalicylic acid]
Inhibition of PEPT1-mediated uptake transport [2]: can inhibit | Km (NAT; saturable, read-out: Km of Ac-CoA-dependent metabolism): 5.8 µM | Time for remaining unabsorbed 5-ASA in the small intestine to reach the distal intestine [3]: ≤ 8 h | Time for some fraction of orally administered 5-ASA to reach the cecum/proximal colon [3]: ≤ 3 h | Substrate for MRP2 (MRP2): is not a substrate and not | Absolute oral bioavailability [4]: 15.5%

C[C@]12C=CC(=O)C=C1CC[C@@H]1[C@@H]2[C@@H](O)C[C@@]2(C)[C@H]1CC[C@]2(O)C(=O)CO [prednisolone]
Correlation of solubility with gastrointestinal pH [5]: not correlated significantly
